Values belong to the molecule of their own block, whether it stands above or below them.
Assays:
human fecal microflora = experiment: In vitro fermentation of fagopyritol-enriched buckwheat extract by human fecal microflora; assay type: in vitro ADME; settings: 40° C.; for concentration of inositols and fagopyritols: anaerobic
Protocol: Fermentation tests were done with fagopyritol-enriched Birkett Mills buckwheat extract that had previously been treated with dry granular baking yeast. Yeast cells were removed by centrifugation (10 minutes at 19K rpm using a Sorvall refrigerated centrifuge) and ultrafiltration (Amicon filtration device, 10, 000 MW cut-off). The fagopyritol water extract was boiled under carbon dioxide to sterilize and remove all other gases.
Anaerobic conditions were maintained during the preparation of fecal inoculum and of all samples by working under streams of carbon dioxide gas. Fermentation bottles were sealed with rubber stoppers and metal caps.
Fagopyritol substrate was prepared first. Then, 1 ml was placed in all bottles except blanks (duplicate samples plus one control and one blank done for 0, 6, 12, and 24 hours). Next, the nutritive medium was prepared. Control bottles received 1 ml of the medium in place of inoculum. The remaining medium was used to dilute fresh feces 1:12, w/v, prepared as described in Barry et al., “In Vitro Fermentation of Neutral Monosaccharides by Ruminal and Human Fecal Microflora,” Acta Vet Scand, 86 (supplement): 93-95 (1989) and Guillon et al., “Characterization of Residual Fibers from Fermentation of Pea and Apple Fibres by Human Fecal Bacteria,” J. Sci. Food Agric., 68:521-529 (1995), which are hereby incorporated by reference. All samples and blanks were inoculated with 1 ml of fecal inoculum by syringe through the rubber stoppers.
A 40° C. water bath was used for the fermentation which was stopped at the specified times by opening bottles to air and immediately freezing.
The samples were prepared for GC analysis after thawing by centrifuging (microfuge, 8000 rpm) once and then again in 10,000 MW cut-off microfuge tubes. The salts present in those samples containing nutritive medium were removed by passing each sample through Amberlite mixed-bed resin, because salts interfere with TMS-derivitization. Two control samples of the original extract were also passed through the resin to insure that fagopyritols were not removed by the treatment.
A small volume of each (750 μL) was dried with 100 μg of internal standard (phenyl α-D-glucopyranoside) in silyation vials under a stream of nitrogen gas; vials were then placed in a desiccator over P205 overnight.
Trimethylsilyl derivitives were prepared by adding 100 μL of 1:1 pyridine:TMS solution and heating at 70° C. for 30 minutes.
Finally, derivitized samples were analyzed on the GC (HP 5890 Series II; DB-1 column; 0.25 mm i.d., 15 m length, 0.25 μm film thickness).

[1] = test system: bovine liver β-D-galactosidase (EC 3.2.1.23); experiment: Enzymatic hydrolysis with β-galactosidase; assay type: biochemical; settings: for hydrolysis by β-galactosidase (in words): 0.5 units in 200 μL water at 37° C. for 24 h, products by GC
Protocol: (§1) Acid and Enzymic Hydrolysis. […] Enzyme protein was removed by filtration (10,000 MW cut-off filter), samples were dried, and products assayed by GC analysis of trimethylsilyl derivatives. Raffinose and lactose (100 μg) were hydrolyzed only by α- or β-D-galactosidase respectively, confirming that both enzymes were active.
as §1, with “hydrolyzed” for “hydrolyzed only”

[2] = target: T1, green coffee bean α-D-galactosidase (EC 3.2.1.22) (Coffea arabica, UniProt Q42656); experiment: Enzymatic hydrolysis with α-galactosidase; assay type: biochemical; settings: for hydrolysis by α-galactosidase (in words): 1.25 units desalted enzyme in 200 μL water at 22° C. (Examples 22, 23), products by GC
T1 construct: desalted green coffee bean α-D-galactosidase (EC 3.2.1.22); purchased Boehringer Mannheim Corporation, Indianapolis, Ind; host or cells: green coffee bean
Protocol: Enzymatic Digestion. One ml of green coffee bean α-galactosidase (EC 3.2.1.22) (Boehringer Mannheim Corporation, Indianapolis, Ind.) in 3.2 M ammonium sulfate was dialyzed overnight against 1000 ml of distilled water to remove the ammonium sulfate that interferes with the silylation reaction and causes variable results. […] After 24 h, 0.2 ml of absolute ethanol and 100 μg of internal standard were added. The mixture was heated to 90° C. for 5 min to inactivate the enzyme and centrifuged through a 10,000 Mr cutoff filter. The filtrate was evaporated to dryness in a stream of nitrogen gas, silylated, and analyzed by gas chromatography as above.
as §1
as §1, with “hydrolyzed” for “hydrolyzed only”

[3] = Controls (nutritive medium in place of fecal inoculum), 0 hrs
[4] = Controls (nutritive medium in place of fecal inoculum), 6 hrs
[5] = Controls (nutritive medium in place of fecal inoculum), 12 hrs
[6] = Samples with human fecal inoculum, 0 hrs
[7] = Samples with human fecal inoculum, 6 hrs
[8] = Samples with human fecal inoculum, 12 hrs

T1 sequence (Q42656 16-378): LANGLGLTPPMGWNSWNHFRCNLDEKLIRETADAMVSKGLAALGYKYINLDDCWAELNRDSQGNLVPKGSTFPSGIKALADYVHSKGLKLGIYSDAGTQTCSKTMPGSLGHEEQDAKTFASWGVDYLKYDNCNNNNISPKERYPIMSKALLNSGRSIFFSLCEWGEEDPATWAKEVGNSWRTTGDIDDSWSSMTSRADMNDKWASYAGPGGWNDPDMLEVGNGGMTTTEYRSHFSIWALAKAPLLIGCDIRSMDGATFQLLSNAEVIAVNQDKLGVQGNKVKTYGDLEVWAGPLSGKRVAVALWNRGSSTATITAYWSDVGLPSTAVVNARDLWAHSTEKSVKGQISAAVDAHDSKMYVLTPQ

concentration of inositols and fagopyritols (human fecal microflora; [3]): 99 µg/750 µL
concentration of inositols and fagopyritols (human fecal microflora; [4]): 102 µg/750 µL
concentration of inositols and fagopyritols (human fecal microflora; [5]): 58 µg/750 µL
concentration of inositols and fagopyritols (human fecal microflora; [6]): 47 µg/750 µL
concentration of inositols and fagopyritols (human fecal microflora; [7]): 0 µg/750 µL
concentration of inositols and fagopyritols (human fecal microflora; [8]): 0 µg/750 µL
Molecule: OC1C(O)C(O)C(O)C(O)C1O [D-chiro-inositol]

Molecule: OCC1O[C@@H](O[C@H]2C(O)C(O)[C@H](O)C(O)C2O)C(O)C(O)[C@H]1O (stereo partly drawn) [Fagopyritol A1, O-α-D-galactopyranosyl-(1→3)-D-chiro-inositol]
concentration of inositols and fagopyritols (human fecal microflora; [3]): 88 µg/750 µL
concentration of inositols and fagopyritols (human fecal microflora; [4]): 87 µg/750 µL
concentration of inositols and fagopyritols (human fecal microflora; [5]): 94 µg/750 µL
concentration of inositols and fagopyritols (human fecal microflora; [6]): 106 µg/750 µL
concentration of inositols and fagopyritols (human fecal microflora; [7]): 0 µg/750 µL
concentration of inositols and fagopyritols (human fecal microflora; [8]): 0 µg/750 µL
hydrolysis by β-galactosidase (in words) [1]: not by β-D-galactosidase
Enzymic hydrolysis by β-D-galactosidase ([1]; Fagopyritol A and B Series): no
hydrolysis by α-galactosidase (in words) [2]: hydrolyzed
Enzymic hydrolysis by α-D-galactosidase ([2]; Fagopyritol A and B Series): yes

Molecule: OCC1O[C@H](OCC2O[C@@H](O[C@H]3C(O)C(O)[C@H](O)C(O)C3O)C(O)C(O)[C@H]2O)C(O)C(O)[C@H]1O (stereo partly drawn) [Fagopyritol A2, O-α-D-galactopyranosyl-(1→6)-O-α-D-galactopyranosyl-(1→3)-D-chiro-inositol]
concentration of inositols and fagopyritols (human fecal microflora; [3]): 56 µg/750 µL
concentration of inositols and fagopyritols (human fecal microflora; [4]): 54 µg/750 µL
concentration of inositols and fagopyritols (human fecal microflora; [5]): 59 µg/750 µL
concentration of inositols and fagopyritols (human fecal microflora; [6]): 54 µg/750 µL
concentration of inositols and fagopyritols (human fecal microflora; [7]): 0 µg/750 µL
concentration of inositols and fagopyritols (human fecal microflora; [8]): 0 µg/750 µL
hydrolysis by β-galactosidase (in words) [1]: not by P-D-galactosidase
Enzymic hydrolysis by β-D-galactosidase ([1]; Fagopyritol A and B Series): no
hydrolysis by α-galactosidase (in words) [2]: hydrolyzed
Enzymic hydrolysis by α-D-galactosidase ([2]; Fagopyritol A and B Series): yes

Molecule: OCC1O[C@H](OC2C(O)[C@H](O)C(O)C(O)[C@@H]2O)C(O)C(O)[C@H]1O (stereo partly drawn) [Fagopyritol B1, O-α-D-galactopyranosyl-(1→2)-D-chiro-inositol]
concentration of inositols and fagopyritols (human fecal microflora; [3]): 667 µg/750 µL
concentration of inositols and fagopyritols (human fecal microflora; [4]): 636 µg/750 µL
concentration of inositols and fagopyritols (human fecal microflora; [5]): 605 µg/750 µL
concentration of inositols and fagopyritols (human fecal microflora; [6]): 591 µg/750 µL
concentration of inositols and fagopyritols (human fecal microflora; [7]): 0 µg/750 µL
concentration of inositols and fagopyritols (human fecal microflora; [8]): 0 µg/750 µL
hydrolysis by β-galactosidase (in words) [1]: not by β-D-galactosidase
Enzymic hydrolysis by β-D-galactosidase ([1]; Fagopyritol A and B Series): no
hydrolysis by α-galactosidase (in words) [2]: hydrolyzed
Enzymic hydrolysis by α-D-galactosidase ([2]; Fagopyritol A and B Series): yes

Molecule: OCC1O[C@H](OCC2O[C@H](OC3C(O)[C@H](O)C(O)C(O)[C@@H]3O)C(O)C(O)[C@H]2O)C(O)C(O)[C@H]1O (stereo partly drawn) [Fagopyritol B2, O-α-D-galactopyranosyl-(1→6)-O-α-D-galactopyranosyl-(1→2)-D-chiro-inositol]
concentration of inositols and fagopyritols (human fecal microflora; [3]): 83 µg/750 µL
concentration of inositols and fagopyritols (human fecal microflora; [4]): 72 µg/750 µL
concentration of inositols and fagopyritols (human fecal microflora; [5]): 66 µg/750 µL
concentration of inositols and fagopyritols (human fecal microflora; [6]): 65 µg/750 µL
concentration of inositols and fagopyritols (human fecal microflora; [7]): 0 µg/750 µL
concentration of inositols and fagopyritols (human fecal microflora; [8]): 0 µg/750 µL
hydrolysis by β-galactosidase (in words) [1]: not by P-D-galactosidase
Enzymic hydrolysis by β-D-galactosidase ([1]; Fagopyritol A and B Series): no
hydrolysis by α-galactosidase (in words) [2]: hydrolyzed
Enzymic hydrolysis by α-D-galactosidase ([2]; Fagopyritol A and B Series): yes

Molecule: OC[C@H]1O[C@H](OC2[C@@H](O)[C@H](O)C(O)[C@H](O)[C@@H]2O)[C@H](O)[C@@H](O)[C@H]1O (stereo partly drawn) [Galactinol (gt1)]
Enzymic hydrolysis by β-D-galactosidase ([1]; Galactinol Series): no
Enzymic hydrolysis by α-D-galactosidase ([2]; Galactinol Series): yes

Molecule: OC[C@H]1O[C@H](OC[C@H]2O[C@H](O[C@]3(CO)O[C@H](CO)[C@@H](O)[C@@H]3O)[C@H](O)[C@@H](O)[C@@H]2O)[C@H](O)[C@@H](O)[C@H]1O [Raffinose, O-α-D-galactopyranosyl-(1→6)-α-D-glucopyranosyl-(1→2)-β-D-fructofuranoside, reference compound]
hydrolysis by α-galactosidase (in words) [2]: hydrolyzed

Molecule: OCC1OC(OCC2OC(OCC3OC(OC4C(O)C(O)C(O)C(O)C4O)C(O)C(O)C3O)C(O)C(O)C2O)C(O)C(O)C1O [TGMI, O-α-D-galactopyranosyl-(1→6)-O-α-D-galactopyranosyl-(1→6)-O-α-D-galactopyranosyl-(1→3)-D-myo-inositol]
hydrolysis by α-galactosidase (in words) [2]: completely hydrolyzed

Molecule: OC[C@H]1O[C@H](OC[C@H]2O[C@H](O[C@@H]3[C@@H](O)[C@H](O)[C@@H](O)[C@H](O)[C@@H]3O)[C@H](O)[C@@H](O)[C@H]2O)[C@H](O)[C@@H](O)[C@H]1O [digalactosyl myo-inositol, O-α-D-galactopyranosyl-(1→6)-O-α-D-galactopyranosyl-(1→3)-D-myo-inositol]
hydrolysis by β-galactosidase (in words) [1]: not by β-galactosidase
hydrolysis by α-galactosidase (in words) [2]: completely hydrolyzed

hydrolysis by β-galactosidase (in words) [1]: hydrolyzed
Molecule: OC[C@H]1O[C@@H](O[C@H]2[C@H](O)[C@@H](O)C(O)O[C@@H]2CO)[C@H](O)[C@@H](O)[C@H]1O (stereo partly drawn) [lactose, reference compound]

concentration of inositols and fagopyritols (human fecal microflora; [3]): 45 µg/750 µL
concentration of inositols and fagopyritols (human fecal microflora; [4]): 48 µg/750 µL
concentration of inositols and fagopyritols (human fecal microflora; [5]): 26 µg/750 µL
concentration of inositols and fagopyritols (human fecal microflora; [6]): 20 µg/750 µL
concentration of inositols and fagopyritols (human fecal microflora; [7]): 0 µg/750 µL
concentration of inositols and fagopyritols (human fecal microflora; [8]): 0 µg/750 µL
Molecule: O[C@H]1[C@H](O)[C@@H](O)[C@H](O)[C@@H](O)[C@H]1O [myo-inositol]

Molecule: OC[C@H]1O[C@H](O[C@H]2O[C@H](CO)[C@@H](O)[C@H](O)[C@H]2O)[C@H](O)[C@@H](O)[C@@H]1O [trehalose, O-α-D-glucopyranosyl-(1-1′)-O-α-D-glucoside]
metabolism by fecal bacteria (in words) (human fecal microflora; fermentation of fagopyritol-enriched extract): metabolized

Molecule: O-α-D-galactopyranosyl-(1→6)-O-α-D-galactopyranosyl-(1→6)-O-α-D-galactopyranosyl-(1→2)-D-chiro-inositol [Fagopyritol B3]
hydrolysis by α-galactosidase (in words) [2]: completely hydrolyzed
Enzymic hydrolysis by α-D-galactosidase ([2]; Fagopyritol A and B Series): yes

Molecule: O-α-D-galactopyranosyl-(1→6)-O-α-D-galactopyranosyl-(1→6)-O-α-D-galactopyranosyl-(1→3)-D-chiro-inositol [Fagopyritol A3]
concentration of inositols and fagopyritols (human fecal microflora; [3]): 21 µg/750 µL
concentration of inositols and fagopyritols (human fecal microflora; [4]): 20 µg/750 µL
concentration of inositols and fagopyritols (human fecal microflora; [5]): 26 µg/750 µL
concentration of inositols and fagopyritols (human fecal microflora; [6]): 48 µg/750 µL
concentration of inositols and fagopyritols (human fecal microflora; [7]): 0 µg/750 µL
concentration of inositols and fagopyritols (human fecal microflora; [8]): 0 µg/750 µL
hydrolysis by β-galactosidase (in words) [1]: not by P-D-galactosidase
Enzymic hydrolysis by β-D-galactosidase ([1]; Fagopyritol A and B Series): no
hydrolysis by α-galactosidase (in words) [2]: hydrolyzed
Enzymic hydrolysis by α-D-galactosidase ([2]; Fagopyritol A and B Series): yes
